Reference: a melting point compilation (Tetko et al.; mined from patent text by program, amines drawn as free bases though some values may be those of a salt)

melting point | Compound
68 to 82 °C | COC(=O)c1cc(N2CCSCC2)c(C(F)(F)F)cc1[N+](=O)[O-]
108 to 110 °C | CCCCNC(=O)Cc1ccc2c(c1)c(Cc1ccc(C(=O)NS(=O)(=O)c3ccccc3C)cc1OC)cn2C
219 to 221 °C | O=C(O)Cc1ccc(N2C(=O)C3CCCCC3C2=O)cc1 (centres undefined)
225 to 226 °C | O=C(NCc1cccnc1)C1Oc2ccc(Cl)cc2Cc2cc(Cl)ccc2O1
224 to 225 °C | CCc1nc(N)nc(N)c1-c1ccc(Cl)c(N=NN(CCO)C(C)(C)C)c1
115 to 120 °C | CN1C(=O)C(CC(NC(=O)c2ccc(Cl)cc2)C(=O)O)c2ccccc21 (centres undefined)
> 280 °C | COc1cc(Nc2nc3ccnc(-c4ccc(S(N)(=O)=O)cc4)c3o2)cc(OC)c1OC
129 to 130 °C | O=[N+]([O-])c1cnc(Sc2cnccn2)s1
267 to 268 °C | CCCCOC(=O)CNC(=O)c1ccc2cc(C(=O)O)[nH]c2c1
173 to 175 °C | CCOC(=O)c1cn(C2CC2)c2c(F)c(NCC(O)CO)c(F)cc2c1=O (centres undefined)
175 to 178 °C | CC(C)CC(=O)Nc1cccc(-c2ccnc3c(-c4ccc(Oc5ccccc5)cc4)cnn23)c1
178 to 180 °C | CCCn1c(=O)c2[nH]c(CC34CC5CC(CC(C5)C3)C4)nc2n(CCC)c1=O
112 to 115 °C | CC(C)OC(=O)c1cc(-n2c(=O)c3c(n(C)c2=O)CCC3)c(F)cc1F
209 to 214 °C | O=c1c2ccc(Cl)cc2[nH]n1Cc1ccccc1
146 to 149 °C | Cc1noc(NS(=O)(=O)c2ccc([N+](=O)[O-])cc2)c1Br
302 to 304 °C | Cc1nn(-c2ccccc2)c2[nH]c(=O)c3ccccc3c12
45 to 47 °C | COc1ccc2cc([C@H](C)C(=O)NOCC(=O)N3CCC(CO[N+](=O)[O-])CC3)ccc2c1
60 to 61 °C | Nc1c(Cl)cc(C(O)CNCCCCCC(=O)OCCc2cccc3ccccc23)cc1Cl (centres undefined)
136 to 138 °C | CCCC(=O)N(C)SN(C(=O)NC(=O)c1c(F)cccc1F)c1ccc(Oc2ccc(C(F)(F)F)cc2Cl)cc1F

melting point | Compound
140 to 141 °C | Clc1cnc2c(-c3ccccc3)nc(Cl)nc2c1
247 to 248 °C | COc1ccc(CSc2nnc(-c3ccn4ncnc4c3)o2)cc1C#N
165 to 168 °C | Clc1cc(Cl)c(Oc2nc(Oc3c(Cl)cc(Cl)c(Cl)c3Cl)nc(Oc3c(Cl)cc(Cl)c(Cl)c3Cl)n2)c(Cl)c1Cl
149 to 150 °C | CSC1C(=O)Nc2c(Oc3ccccc3)cccc21 (centres undefined)
114 to 115 °C | Cn1c(-c2ccc(Br)cc2)cc2ccccc21
89.5 to 90.3 °C | COc1cc(C=CC(=O)c2cccc(F)c2)cc(OC)c1
219 to 220 °C | O=C(O)c1cccc(-c2ccc3c(c2)N(c2cc(Cl)ccc2Cl)CC3)c1
149 to 150 °C | O=C(Nc1ccc(Cl)cc1C(=O)NCc1ccc2c(c1)OCO2)Oc1ccccc1
65 to 66.8 °C | COC(=O)COc1ccc(N)cc1
191 to 193 °C | C#CCOc1ccc(/C=C/C(=O)Nc2ccccc2C(=O)O)cc1OC
207 to 208 °C | COCC1CN(c2ccc(C3CCCCC3)c(O)c2)C(=O)O1 (racemic)
65 °C | O=[N+]([O-])c1ccc(F)c(-c2ccsc2)c1
162 to 163 °C | CN(C(=O)CN(O)C(N)=O)c1cccc(OCc2ccccc2)c1
56 °C | COC(=O)C(C(=O)OC)=C(/C=C/Cl)CCl
189 to 191 °C | O=c1oc(-c2ccccc2)cc(O)c1C(SC1CCCCC1)c1ccccc1 (centres undefined)
198 to 200 °C | COc1cc2c(Nc3ccc(Sc4nccn4C)c(Cl)c3)c(C#N)cnc2cc1NCCCN(C)C
62 to 64 °C | CCCCN(CCCC(=O)O)C(=O)c1ccccc1
176 to 178 °C | Cc1cc2c(F)cc(F)c(-n3c(=O)cc(C(F)(F)F)n(C)c3=O)c2o1
216 to 221 °C | CC(O)Cn1cnc2c(N)nc3ccccc3c21 (centres undefined)

Compound | melting point
NC(=O)CCN1CCC(C(O)(c2ccc(F)cc2)c2ccc(F)cc2)CC1 | 136 to 137 °C
